Test results as given in publication PMC6130198 (ACS chemical biology, 2018).

Columns and labels:
Fes = Fes (Homo sapiens, UniProt P07332); assay: Z'-LYTE in vitro kinase assay; type: biochemical; conditions: data not shown
Fgr = Fgr (Homo sapiens, UniProt P09769); assay: Z'-LYTE in vitro kinase assay; type: biochemical; conditions: data not shown
Syk = Syk (Homo sapiens, UniProt P43405); assay: Z'-LYTE in vitro kinase assay; type: biochemical; conditions: data not shown
Hck = Hck (Homo sapiens, UniProt P08631); assay: Z'-LYTE in vitro kinase assay; type: biochemical; conditions: data not shown
MV4–11 AML cells = assay: MV4–11 AML cell xenograft model in NSG mice; conditions: 10 mg/kg once daily oral gavage, three weeks
[1] = target: other myeloid Src-family kinases; assay: In vitro kinase assay; type: biochemical; conditions: data not shown
Flt3-ITD = assay: Z'-LYTE in vitro kinase assay; type: biochemical; conditions: stated in words only

Sequence of Fes (P07332 whole entry): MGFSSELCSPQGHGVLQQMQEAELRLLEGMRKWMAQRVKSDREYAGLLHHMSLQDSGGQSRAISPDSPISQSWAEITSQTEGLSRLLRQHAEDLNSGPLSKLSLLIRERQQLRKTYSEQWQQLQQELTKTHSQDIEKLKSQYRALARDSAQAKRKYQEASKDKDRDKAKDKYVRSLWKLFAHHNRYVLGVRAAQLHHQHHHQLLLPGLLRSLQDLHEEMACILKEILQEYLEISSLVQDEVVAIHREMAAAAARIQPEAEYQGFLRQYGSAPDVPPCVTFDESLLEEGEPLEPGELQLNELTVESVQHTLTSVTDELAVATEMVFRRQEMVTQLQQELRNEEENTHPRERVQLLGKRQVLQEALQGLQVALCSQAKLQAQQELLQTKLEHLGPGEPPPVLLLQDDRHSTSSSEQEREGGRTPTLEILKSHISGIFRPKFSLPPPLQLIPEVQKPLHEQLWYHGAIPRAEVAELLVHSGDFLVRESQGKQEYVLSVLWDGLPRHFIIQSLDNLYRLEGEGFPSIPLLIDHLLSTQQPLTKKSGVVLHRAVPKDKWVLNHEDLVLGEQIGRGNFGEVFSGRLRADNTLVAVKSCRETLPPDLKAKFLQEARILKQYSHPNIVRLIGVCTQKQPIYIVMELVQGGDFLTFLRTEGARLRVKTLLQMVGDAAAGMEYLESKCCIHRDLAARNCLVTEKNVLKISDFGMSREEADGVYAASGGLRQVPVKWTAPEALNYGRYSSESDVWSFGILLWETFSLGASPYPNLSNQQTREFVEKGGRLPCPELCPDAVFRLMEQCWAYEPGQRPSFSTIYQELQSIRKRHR
Sequence of Hck (P08631 whole entry): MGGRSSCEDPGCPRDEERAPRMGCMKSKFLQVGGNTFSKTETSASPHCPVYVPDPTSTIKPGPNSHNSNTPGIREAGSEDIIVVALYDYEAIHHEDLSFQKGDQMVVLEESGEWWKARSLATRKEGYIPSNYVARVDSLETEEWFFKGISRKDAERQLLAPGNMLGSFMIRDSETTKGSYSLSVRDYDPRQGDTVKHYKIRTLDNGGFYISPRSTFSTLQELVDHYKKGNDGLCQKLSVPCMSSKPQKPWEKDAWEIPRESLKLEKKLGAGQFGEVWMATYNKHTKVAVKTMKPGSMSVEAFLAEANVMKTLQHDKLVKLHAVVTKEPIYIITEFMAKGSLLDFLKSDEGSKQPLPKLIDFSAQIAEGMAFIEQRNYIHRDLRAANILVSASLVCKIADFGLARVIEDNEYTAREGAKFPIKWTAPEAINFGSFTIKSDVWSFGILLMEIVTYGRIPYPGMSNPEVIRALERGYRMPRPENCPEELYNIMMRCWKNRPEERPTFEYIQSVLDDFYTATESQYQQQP
Sequence of Fgr (P09769 whole entry): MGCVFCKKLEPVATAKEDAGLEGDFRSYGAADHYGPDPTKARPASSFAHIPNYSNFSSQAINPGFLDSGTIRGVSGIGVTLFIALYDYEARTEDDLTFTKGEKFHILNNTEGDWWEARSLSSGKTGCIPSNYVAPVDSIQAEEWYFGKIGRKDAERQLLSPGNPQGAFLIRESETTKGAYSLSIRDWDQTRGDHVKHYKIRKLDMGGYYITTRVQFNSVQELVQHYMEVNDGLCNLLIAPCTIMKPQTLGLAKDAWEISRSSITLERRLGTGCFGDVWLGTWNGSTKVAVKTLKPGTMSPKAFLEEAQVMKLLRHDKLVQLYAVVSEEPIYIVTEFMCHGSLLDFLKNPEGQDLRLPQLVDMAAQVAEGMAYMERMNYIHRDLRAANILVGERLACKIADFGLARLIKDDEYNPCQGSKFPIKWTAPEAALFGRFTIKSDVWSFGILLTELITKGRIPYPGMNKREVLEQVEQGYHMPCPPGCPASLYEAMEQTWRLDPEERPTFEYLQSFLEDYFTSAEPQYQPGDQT

COc1cc2c(N3CCN(C(=O)Nc4ccc(OC(C)C)cc4)CC3)ncnc2cc1OCCCN1CCCCC1 [tandutinib]
inhibition of kinase in vitro (Fes): does not inhibit
inhibition of kinase in vitro (Fgr): does not inhibit
inhibition of kinase in vitro (Syk): does not inhibit
inhibition of kinase in vitro (Hck): does not inhibit

CNC(=O)c1cc(Oc2ccc(NC(=O)Nc3ccc(Cl)c(C(F)(F)F)c3)cc2)ccn1 [sorafenib]
MV4–11 cells in bone marrow thin sections (human CD45 immunohistochemistry) (MV4–11 AML cells): still stained strongly for MV4–11 cells
MV4–11 cells in spleen thin sections (human CD45 immunohistochemistry) (MV4–11 AML cells): still stained strongly for MV4–11 cells
effect on leukemic cells in the peripheral blood (MV4–11 AML cells; flow cytometry): significant reduction
effect on spleen engraftment of MV4–11 cells (MV4–11 AML cells; flow cytometry): no effect
reduction of bone marrow engraftment of MV4–11 cells (MV4–11 AML cells; flow cytometry): no effect
inhibition of kinase in vitro (Fes): does not inhibit
inhibition of kinase in vitro (Fgr): does not inhibit
IC50 [1]: > 100 µM
inhibition of kinase in vitro (Syk): does not inhibit
inhibition of kinase in vitro (Hck): does not inhibit
inhibition of Flt3-ITD kinase activity in vitro (Flt3-ITD): nM inhibitor

CCN(CC)CCNC(=O)c1c(C)[nH]c(/C=C2\C(=O)Nc3ccc(F)cc32)c1C [sunitinib]
inhibition of kinase in vitro (Fgr): does not inhibit
inhibition of kinase in vitro (Hck): does not inhibit

CC(C)(C)c1cc(NC(=O)Nc2ccc(-c3cn4c(n3)sc3cc(OCCN5CCOCC5)ccc34)cc2)no1 [quizartinib]
inhibition of kinase in vitro (Fes): does not inhibit
inhibition of kinase in vitro (Fgr): does not inhibit
inhibition of kinase in vitro (Syk): does not inhibit
inhibition of kinase in vitro (Hck): does not inhibit
